Source: paper PMC8968665, “Verteporfin is a substrate-selective γ-secretase inhibitor that binds the amyloid precursor protein transmembrane domain” (The Journal of Biological Chemistry, 2022)

Key:
[1] = molecular target: T1, γ-secretase cleavage of C100-Flag (C99) (Homo sapiens, UniProt P05067); test: γ-Secretase assay, C100-FLAG cleavage, AICD by anti-Flag Western blot; format: biochemical; conditions: 30 nM LY411,575, 2 µM C100-Flag, 1 nM γ-secretase, Fig. S6A lane 7
T1 construct: C100 is C99 with an added N-terminal Met residue; made in house
Protocol: The γ-secretase-dependent proteolysis assays with both substrates (C100-FLAG and HexaHis Notch 1 JM/TM) were performed in a weak zwitterionic detergent (CHAPSO, 3-[(3- cholamidopropyl)dimethylammonio]-2-hydroxy-1-propanesulfonate) solubilized conditions ([79], [80]). C100 is C99 with an added N-terminal Met residue. […] Proteolytic reactions were initiated by adding purified substrates (either C100-FLAG(79) or HexaHis-Notch 1 JM/TM(77)) and incubating at 37 °C (16 h for C100Flag and 4 h for HexaHis-Notch 1 JM/TM). Reactions were quenched with SDS, and the cleaved intracellular domain products (AICD-FLAG released from C100-FLAG or truncated intracellular domain (NICD) released from the proteolysis of Hexa-His Notch 1 JM/TM) were visualized by Western blot using specific primary antibodies, anti-FLAG antibody for FLAG-tagged AICD, and neoepitope-specific anti-V1744 antibody for NICD ([80], [83], [84]).

[2] = molecular target: C99 (C-terminal 99 amino acid fragment of the human amyloid precursor protein), as used for IM-MS (human) (UniProt P05067); test: native MS; native ion mobility-mass spectrometry (IM-MS); 20 uM C99 in 100X CMC LMPG or DDMB micelles, 200 mM ammonium acetate pH 4.5; DMSO or 0-50 uM verteporfin, incubated in the dark overnight; micelles dissociated in the instrument

T1 sequence (P05067 672-770 limits assumed): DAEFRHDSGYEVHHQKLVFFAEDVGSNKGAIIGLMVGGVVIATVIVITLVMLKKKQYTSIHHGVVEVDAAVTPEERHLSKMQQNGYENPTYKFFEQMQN
C99 (C-terminal 99 amino acid fragment of the human amyloid precursor protein), as used for IM-MS, sequence (P05067 672-770): as the sequence (P05067 672-770 limits assumed) above

| Molecule | C100-Flag cleavage efficiency (Western blot) [1] | stoichiometry N [2] |
| --- | --- | --- |
| C[C@H](NC(=O)[C@@H](O)c1cc(F)cc(F)c1)C(=O)N[C@@H]1C(=O)N(C)c2ccccc2-c2ccccc21 [LY411,575] | fully |  |
| C99 (C-terminal 99 amino acid fragment of the human amyloid precursor protein), as used for IM-MS (from UniProt P05067 672-770) (domain or fragment) |  | 2 |
